Literature values in US20250258260A1, “MEGLUMINE BASED FORMULATIONS FOR DYNAMIC NUCLEAR POLARIZATION” (THE BOARD OF REGENTS OF THE UNIVERSITY OF TEXAS SYSTEM, priority 2024, published 2025).
Converted amounts (≈) assume the structure as drawn. Like-named read-outs stand apart in the source and are kept apart here.

Columns and labels:
[1] = at 11.7 T using water as solvent
[2] = tested on: muscle function; details: 18 mM in drinking water for at least 30 days

For `O=[13C](O)/C=C/[13C](=O)O` [[1,4-^13C2]fumarate], the T1 [1] is listed as 29 s.
For `O=C(O)/C=C/C(=O)O` [fumaric acid], the solubility in water (at 25° C.) is listed as 6000 µg/mL (≈ 51.7 mM).
For `CNC[C@H](O)[C@@H](O)[C@H](O)[C@H](O)CO` [meglumine], the effect of supplementation [2] is listed as “favorable effect on muscle function” and the solubility in water is listed as “up to 1 g/mL”.
